# Legend:
# [1] = target: T1, CRAC channel (Orai I / STIM I) (Homo sapiens, UniProt Q13586); test: Whole cell CRAC current (Icrac) in HEK293 cells expressing Orai I and YFP-STIM I; assay type: cell-based; details: whole cell clamp
# T1 construct: expressed in transfected cells; host or cells: HEK293
# Experimental: Analysis was performed in HEK293 cells stably expressing Orai I and transfected with STIM I YFP used conventional whole cell voltage recordings as described (see, Wang Y, Deng X, Zhou Y, Hendron E, Mancarelia S, Ritchie M F. Tang X D, Baba Y, Kurosaki T, Mori Y, Soboloff J, Gill D L., “STIM protein coupling in the activation of Orai channels”, Proc Natl Acad Sci USA Vol. 106, pages 7391-7396, 2009). Immediately after establishment of the whole-cell electrode seal, voltage ramps spanning from—100 to +100 mV in 50 msec were delivered from a holding potential of 0 mV at a rate of 0.5 Hz. A 10 mV junction potential compensation was applied. […]
# The haloanilide DCPA blocks store-operated Ca^2+ channel function in Jurkat cells with no effect on ER Ca^2+ content. […] To address this, the present inventor examined HEK293 cells stably expressing Orai I and transiently transfected with YFP-STIMI and measured the effect of DCPA on CRAC current or Icrac. CRAC channel activity was measured in the whole cell clamp position after passively depleting Ca^2+ stores via the presence of 10 mM EGTA in the patch pipette. […]
# [2] = tested on: human monocytes differentiating into osteoclasts; test: Human osteoclast differentiation in vitro (multinucleation, TRAP); assay type: cell-based; details: 8 days after RANKL
# Experimental: Human monocytes were isolated from normal buffy coat cells (60-80 ml) obtained with approval of institutional review boards by separation from donor blood, the white-cell depleted blood retained for clinical use. Human monocyte culture and differentiation were as reported (see, Yaroslayskly B B, Zhang Y, Kalla S E, Garcia P V, Sharrow A C, Li Y, Zaidi M, Wu C, Blair H C, “NO-dependent osteoclast motility: Reliance on cGMP-dependent protein kinase I and VASP”, J Cell Sci I, Vol. 18, pages 5479-5487, 2005). Briefly, human monocytes cells were isolated from buffy coat on ficoll lymphocyte separation media and cultured at ˜6×10^5 cells per cm^2 in monocyte maintenance medium, Dulbecco's modified essential medium (DMEM) with 20 ng/ml of human m-CSF and 10% FBS, for 24 hours (h). After 24 h in culture, the medium was changed to osteoclast differentiation medium containing in addition of human 50 ng/ml of RANKL, with the additional inhibitors or activators as specified in results. Human osteoclast cultures were generally maintained for a minimum of 7 days before analysis, or longer times as specified in results.
# The effect of DCPA on human osteoclast differentiation 8 days after addition of RANKL was evaluated.
# [3] = target: T2, STIM I/Orai I interaction (Homo sapiens, UniProt Q13586); test: 2-APB-induced STIM I ct translocation to plasma membrane; assay type: cell-based; details: DCPA 100 μM, 2-APB 50 μM
# T2 construct: the cytosolic fragment of STIM I (STIM 1 ct); expressed in transfected cells
# [4] = cited from earlier work
# STIM I = target: T3, STIM I (Homo sapiens, UniProt Q13586); test: STIM I puncta formation in HEK293 cells transfected with YFP-STIM I; assay type: cell-based; details: 2 μM thapsigargin, 16 minute period
# T3 construct: expressed in transfected cells; host or cells: HEK293
# Experimental: HEK293 cells, maintained in DMEM with 10% FBS, were transfected with YFP-STIM I using Lipofectamine 2000 (Invitrogen, Carlsbad, Calif.) for 5 h (37° C.; 5% CO2) followed by a 24-h recovery. Cells were placed in 140 mM NaCl, 5 mM KCl, 1 mM MgCl2, 10 mM glucose, 15 mM HEPES, 0.1% BSA, 2 mM CaCl2 and analyzed by confocal microscopy for STIM I puncta formation using a Nikon phase-fluorescence microscope with CCD detectors (Diagnostic instruments, Sterling Heights, Mich.). Phase or transmitted light microscopy used 10-40× objectives and red, green, and blue filters to assemble color images. Fluorescence images used 1.4 NA 40× oil objectives. Red fluorescence used excitation at 530-560 nm, a 575 nm dichroic minor, and 580-650 nm emission filter. Transfection data were analyzed using Nikon NIS Elements Imaging Software. The effect of DCPA on STIM I/Orai I association was determined in wild-type HEK293 cells transfected with STIM I-YFP as described in Wang Y, Deng X, Zhou Y, Hendron E, Mancarelia S, Ritchie M F, Tang X D, Baba Y, Kurosaki T, Mori Y, Soboloff J, Gill DL, “STIM protein coupling in the activation of Orai channels”, Proc Natl Acad Sci USA, Vol. 106, pages 7391-7396, 2009. Experiments were performed on a Leica DMI 6000B fluorescence microscope controlled by Slidebook Software (Intelligent Imaging Innovations, Denver, Colo.). […]
# T1 sequence (Q13586 23-685): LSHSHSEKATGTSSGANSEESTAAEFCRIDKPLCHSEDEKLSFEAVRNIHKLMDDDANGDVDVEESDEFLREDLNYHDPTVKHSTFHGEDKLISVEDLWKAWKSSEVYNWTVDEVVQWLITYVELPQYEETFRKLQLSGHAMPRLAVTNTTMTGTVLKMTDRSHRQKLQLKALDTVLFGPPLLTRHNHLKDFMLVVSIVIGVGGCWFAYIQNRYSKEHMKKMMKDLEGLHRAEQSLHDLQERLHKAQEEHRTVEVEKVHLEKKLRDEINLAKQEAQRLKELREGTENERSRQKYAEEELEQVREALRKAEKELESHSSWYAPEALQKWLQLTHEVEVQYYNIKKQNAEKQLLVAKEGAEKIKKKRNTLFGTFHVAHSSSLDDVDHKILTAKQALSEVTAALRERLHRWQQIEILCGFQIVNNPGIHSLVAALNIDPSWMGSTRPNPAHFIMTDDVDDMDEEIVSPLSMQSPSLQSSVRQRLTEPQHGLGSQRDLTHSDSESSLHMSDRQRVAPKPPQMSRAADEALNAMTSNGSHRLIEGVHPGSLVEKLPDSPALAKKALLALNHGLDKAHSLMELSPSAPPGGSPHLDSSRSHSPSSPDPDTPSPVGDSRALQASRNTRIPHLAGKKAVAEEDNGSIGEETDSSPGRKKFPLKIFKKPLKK
# T3 sequence (Q13586 23-685): as above
# T2 sequence (Q13586 235-685 limits assumed): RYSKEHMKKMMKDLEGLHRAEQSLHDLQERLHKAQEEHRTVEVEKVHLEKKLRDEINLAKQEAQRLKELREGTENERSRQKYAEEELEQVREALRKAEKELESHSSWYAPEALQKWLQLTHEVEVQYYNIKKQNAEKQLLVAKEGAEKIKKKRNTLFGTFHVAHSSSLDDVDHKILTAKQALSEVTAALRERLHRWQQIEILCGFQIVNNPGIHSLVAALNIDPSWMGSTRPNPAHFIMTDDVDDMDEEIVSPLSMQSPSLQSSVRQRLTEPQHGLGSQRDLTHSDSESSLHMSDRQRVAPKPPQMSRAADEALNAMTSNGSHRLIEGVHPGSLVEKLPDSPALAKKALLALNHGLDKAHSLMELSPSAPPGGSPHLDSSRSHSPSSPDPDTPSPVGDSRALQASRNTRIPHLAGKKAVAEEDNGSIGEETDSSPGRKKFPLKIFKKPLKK
compound,measurement,setting,value
"CCC(=O)Nc1ccc(Cl)c(Cl)c1 [DCPA, N-(3,4-dichlorophenyl)propanamide]",current-voltage relationship versus control cells,[1],did not show significant differences
same,time for CRAC current to return to baseline after break-in,[1]; 10 mM EGTA in pipette,less than 4 minutes
same,number of multinucleated TRAP+ cells,[2]; 1.0 μM,minimal effect
same,number of multinucleated cells,[2]; 10 and 100 μM,marked progressive reduction
same,TRAP activity,[2]; up to highest concentration (100 μM),no differences
same,ability of 2-APB to induce STIM I ct translocation to the plasma membrane,[3],dramatically attenuated
same,doses mice can tolerate,[4],> 100 mg/kg
same,doses producing frank immunotoxicity,[4]; mice,> 150 mg/kg
same,STIM I puncta formation after store depletion,STIM I,dramatically inhibited

# — US10682320B2, “Method for inhibiting osteoclast development” (West Virginia University, priority 2012, dated 2020)
